Assay results published in the supplement of paper PMC11208160.

Assay: recombinant barcode read abundance after kanamycin selection (control-corrected) (log10(CPM+1)); higher = more efficient recombination; sequences stand for … in AGTGCAGAGAAAATCGGCCAGTTTTCTCTGCCTGCAGTCCGCATGCCGT…ATTTATGCAGCGGACTGCCTTTCTCCCAAAGTGATAAACCGGACAGTATCATGGACCGGTTTTCCCGGTAATCCGTATTTGCAAGGTTGGTTTCACT; site = the 11-nt target
In short: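 Targets and IS621 bridge RNA target-binding loops were paired in oligos, each with a promoter, a barcode and the J23119-driven first 104 bridge RNA bases. A vector carrying the remaining 73 bp and a T7-inducible recombinase received these by Gibson cloning, and the pool was co-electroporated into E. coli with a donor plasmid. Duplicate plates contained chloramphenicol/ampicillin LB agar (control) or chloramphenicol/ampicillin/kanamycin with 0.1 mM IPTG. Recombination efficiency comes from averaged, control-corrected counts per million of recombinant-junction barcodes, reported as log10(CPM+1).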

| Sequence | recombinant barcode read abundance (log10) |
| --- | --- |
| GGGCGGAAGTGGGTTCTAACCTGTTGCGGCT [GGGCGGACTCC_LTGcore_AG_RTGcore_AG] (site GGGCGGACTCC) (LTG core: AG, RTG core: AG) | 0.193 |
| GGGCGGACCTGGGTTCTAACCTGTTGCGGGG [GGGCGGACTCC_LTGcore_CC_RTGcore_CC] (site GGGCGGACTCC) (LTG core: CC, RTG core: CC) | 0.132 |
| GGGCGGACTTGGGTTCTAACCTGTTGCGGAA [GGGCGGACTCC_LTGcore_CT_RTGcore_TT] (site GGGCGGACTCC) (LTG core: CT, RTG core: TT) | 1.23 |
| GGGCGGACTTGGGTTCTAACCTGTTGCGGAT [GGGCGGACTCC_LTGcore_CT_RTGcore_AT] (site GGGCGGACTCC) (LTG core: CT, RTG core: AT) | 0.0401 |
| GGGCGGACTTGGGTTCTAACCTGTTGCGGCA [GGGCGGACTCC_LTGcore_CT_RTGcore_TG] (site GGGCGGACTCC) (LTG core: CT, RTG core: TG) | 0.146 |
| GGGCGGAGATGGGTTCTAACCTGTTGCGGAG [GGGCGGACTCC_LTGcore_GA_RTGcore_CT] (site GGGCGGACTCC) (LTG core: GA, RTG core: CT) | 0.539 |
| GGGCGGAGCTGGGTTCTAACCTGTTGCGGAG [GGGCGGACTCC_LTGcore_GC_RTGcore_CT] (site GGGCGGACTCC) (LTG core: GC, RTG core: CT) | 0.0821 |
| GGGCGGAGGTGGGTTCTAACCTGTTGCGGAG [GGGCGGACTCC_LTGcore_GG_RTGcore_CT] (site GGGCGGACTCC) (LTG core: GG, RTG core: CT) | 0.0907 |
| GGGCGGAGGTGGGTTCTAACCTGTTGCGGCC [GGGCGGACTCC_LTGcore_GG_RTGcore_GG] (site GGGCGGACTCC) (LTG core: GG, RTG core: GG) | 0.502 |
| GGGCGGATATGGGTTCTAACCTGTTGCGGAG [GGGCGGACTCC_LTGcore_TA_RTGcore_CT] (site GGGCGGACTCC) (LTG core: TA, RTG core: CT) | 0.0954 |
| GGGCGGATATGGGTTCTAACCTGTTGCGGTA [GGGCGGACTCC_LTGcore_TA_RTGcore_TA] (site GGGCGGACTCC) (LTG core: TA, RTG core: TA) | 0.0888 |
| GGGCGGATGTGGGTTCTAACCTGTTGCGGCA [GGGCGGACTCC_LTGcore_TG_RTGcore_TG] (site GGGCGGACTCC) (LTG core: TG, RTG core: TG) | 0.182 |
| GGGCGTGACTGGGTTCTAACCTGTTGCCTAG [GGGCGTGCTAG_LTGcore_AC_RTGcore_CT] (site GGGCGTGCTAG) (LTG core: AC, RTG core: CT) | 0.437 |
| GGGCGTGACTGGGTTCTAACCTGTTGCCTGT [GGGCGTGCTAG_LTGcore_AC_RTGcore_AC] (site GGGCGTGCTAG) (LTG core: AC, RTG core: AC) | 0.0793 |
| GGGCGTGAGTGGGTTCTAACCTGTTGCCTCT [GGGCGTGCTAG_LTGcore_AG_RTGcore_AG] (site GGGCGTGCTAG) (LTG core: AG, RTG core: AG) | 0.523 |
| GGGCGTGATTGGGTTCTAACCTGTTGCCTAG [GGGCGTGCTAG_LTGcore_AT_RTGcore_CT] (site GGGCGTGCTAG) (LTG core: AT, RTG core: CT) | 0.308 |
| GGGCGTGCGTGGGTTCTAACCTGTTGCCTCG [GGGCGTGCTAG_LTGcore_CG_RTGcore_CG] (site GGGCGTGCTAG) (LTG core: CG, RTG core: CG) | 0.0415 |
| GGGCGTGCTTGGGTTCTAACCTGTTGCCTAA [GGGCGTGCTAG_LTGcore_CT_RTGcore_TT] (site GGGCGTGCTAG) (LTG core: CT, RTG core: TT) | 0.104 |
| GGGCGTGCTTGGGTTCTAACCTGTTGCCTAC [GGGCGTGCTAG_LTGcore_CT_RTGcore_GT] (site GGGCGTGCTAG) (LTG core: CT, RTG core: GT) | 0.107 |
| GGGCGTGCTTGGGTTCTAACCTGTTGCCTAG [GGGCGTGCTAG_LTGcore_CT_RTGcore_CT] (site GGGCGTGCTAG) (LTG core: CT, RTG core: CT) | 1.41 |
| GGGCGTGCTTGGGTTCTAACCTGTTGCCTAT [GGGCGTGCTAG_LTGcore_CT_RTGcore_AT] (site GGGCGTGCTAG) (LTG core: CT, RTG core: AT) | 1.05 |
| GGGCGTGCTTGGGTTCTAACCTGTTGCCTGA [GGGCGTGCTAG_LTGcore_CT_RTGcore_TC] (site GGGCGTGCTAG) (LTG core: CT, RTG core: TC) | 1.02 |

| Sequence | recombinant barcode read abundance (log10) |
| --- | --- |
| GGGCGTGCTTGGGTTCTAACCTGTTGCCTGT [GGGCGTGCTAG_LTGcore_CT_RTGcore_AC] (site GGGCGTGCTAG) (LTG core: CT, RTG core: AC) | 0.536 |
| GGGCGTGCTTGGGTTCTAACCTGTTGCCTTT [GGGCGTGCTAG_LTGcore_CT_RTGcore_AA] (site GGGCGTGCTAG) (LTG core: CT, RTG core: AA) | 0.509 |
| GGGCGTGTCTGGGTTCTAACCTGTTGCCTGA [GGGCGTGCTAG_LTGcore_TC_RTGcore_TC] (site GGGCGTGCTAG) (LTG core: TC, RTG core: TC) | 0.157 |
| GGGCGTGTGTGGGTTCTAACCTGTTGCCTCA [GGGCGTGCTAG_LTGcore_TG_RTGcore_TG] (site GGGCGTGCTAG) (LTG core: TG, RTG core: TG) | 0.0289 |
| GGTGCCCACTGGGTTCTAACCTGTTGCCGAG [GGTGCCCCTCG_LTGcore_AC_RTGcore_CT] (site GGTGCCCCTCG) (LTG core: AC, RTG core: CT) | 0.416 |
| GGTGCCCATTGGGTTCTAACCTGTTGCCGAG [GGTGCCCCTCG_LTGcore_AT_RTGcore_CT] (site GGTGCCCCTCG) (LTG core: AT, RTG core: CT) | 0.111 |
| GGTGCCCCTTGGGTTCTAACCTGTTGCCGAA [GGTGCCCCTCG_LTGcore_CT_RTGcore_TT] (site GGTGCCCCTCG) (LTG core: CT, RTG core: TT) | 0.481 |
| GGTGCCCCTTGGGTTCTAACCTGTTGCCGAG [GGTGCCCCTCG_LTGcore_CT_RTGcore_CT] (site GGTGCCCCTCG) (LTG core: CT, RTG core: CT) | 1.46 |
| GGTGCCCCTTGGGTTCTAACCTGTTGCCGCA [GGTGCCCCTCG_LTGcore_CT_RTGcore_TG] (site GGTGCCCCTCG) (LTG core: CT, RTG core: TG) | 0.0728 |
| GGTGCCCCTTGGGTTCTAACCTGTTGCCGTT [GGTGCCCCTCG_LTGcore_CT_RTGcore_AA] (site GGTGCCCCTCG) (LTG core: CT, RTG core: AA) | 0.0623 |
| GTCGCCCACTGGGTTCTAACCTGTTGCTAGT [GTCGCCCCTTA_LTGcore_AC_RTGcore_AC] (site GTCGCCCCTTA) (LTG core: AC, RTG core: AC) | 0.348 |
| GTCGCCCATTGGGTTCTAACCTGTTGCTAAT [GTCGCCCCTTA_LTGcore_AT_RTGcore_AT] (site GTCGCCCCTTA) (LTG core: AT, RTG core: AT) | 0.182 |
| GTCGCCCCTTGGGTTCTAACCTGTTGCTAGT [GTCGCCCCTTA_LTGcore_CT_RTGcore_AC] (site GTCGCCCCTTA) (LTG core: CT, RTG core: AC) | 0.644 |
| GTCGCCCCTTGGGTTCTAACCTGTTGCTATC [GTCGCCCCTTA_LTGcore_CT_RTGcore_GA] (site GTCGCCCCTTA) (LTG core: CT, RTG core: GA) | 0.434 |
| GTCGCCCTATGGGTTCTAACCTGTTGCTAAG [GTCGCCCCTTA_LTGcore_TA_RTGcore_CT] (site GTCGCCCCTTA) (LTG core: TA, RTG core: CT) | 0.0747 |
| GTCGCCCTGTGGGTTCTAACCTGTTGCTAAG [GTCGCCCCTTA_LTGcore_TG_RTGcore_CT] (site GTCGCCCCTTA) (LTG core: TG, RTG core: CT) | 0.405 |
| TAAGAATACTGGGTTCTAACCTGTTGCCTAG [TAAGAATCTAG_LTGcore_AC_RTGcore_CT] (site TAAGAATCTAG) (LTG core: AC, RTG core: CT) | 0.0833 |
| TAAGAATCCTGGGTTCTAACCTGTTGCCTGG [TAAGAATCTAG_LTGcore_CC_RTGcore_CC] (site TAAGAATCTAG) (LTG core: CC, RTG core: CC) | 0.0748 |
| TAAGAATCGTGGGTTCTAACCTGTTGCCTAG [TAAGAATCTAG_LTGcore_CG_RTGcore_CT] (site TAAGAATCTAG) (LTG core: CG, RTG core: CT) | 0.349 |
| TAAGAATCTTGGGTTCTAACCTGTTGCCTGG [TAAGAATCTAG_LTGcore_CT_RTGcore_CC] (site TAAGAATCTAG) (LTG core: CT, RTG core: CC) | 0.39 |
| TAAGAATCTTGGGTTCTAACCTGTTGCCTTG [TAAGAATCTAG_LTGcore_CT_RTGcore_CA] (site TAAGAATCTAG) (LTG core: CT, RTG core: CA) | 0.89 |
